Results published in patent publication US7994329B2, “Growth hormone secretagogue receptor type 1A agonists” (Helsinn Therapeutics (U.S.), Inc., priority 2000, dated 2011).
Where two headings read alike, the source gives them in different places. Blank lines part the entries; values can stand above or below the compound they belong to. No end group written: not given here.

Columns and labels:
rat pituitary cells = test: GH secretion from rat pituitary cells; format: cell-based
GH release [1] = test: GH release in anaesthetized rats (plasma rat GH); format: in vivo
Experimental: Blood samples were obtained from anaesthetized animals before dosing, and either 10 min after dosing or by frequent blood sampling through a catheter up until 45 min after dosing. The plasma was analyzed for rat GH.
Non-deprived male Wistar rats (n=6-10) were used for the study, dosed with vehicle or with ghrelin at 10 μg/rat icy dissolved in 5 μl saline. […] GH release was measured in Halothane-anaesthetized animals from which blood samples were obtained, before dosing and 10 min after dosing, via the orbital plexus. The plasma was analyzed for rat GH.

food intake = test: Food intake in non-deprived male Wistar rats (feeding boxes); format: in vivo, rat; details: 3 hours after injection
Experimental: Food intake was measured in feeding boxes with standard chow and water placed on balances connected to a computer. Changes in weight of chow and water were continuously registered. Food and water intake were measured for 3 hours after drug injection during early daytime, when food intake is normally at a very low level.
The effect on feeding was tested after icy injections in non-deprived male Wistar rats. The compounds were dissolved in 5 μl saline and injected in the following doses: 10.0 μg per rat (NNC 26-1291) and 30.0 μg per rat (NN703 and NNC 26-1187).
Food intake was measured in feeding boxes, where standard chow and water were placed on balances and changes in weight continuously registered. Food and water intake was measured for 3 hours after drug injection in the beginning of the light part of the diurnal cycle, when food intake is normally at a very low level. […] For comparison, food intake in control animals is normally about 1 gram, and icy administration of 10 μg porcine neuropeptide Y (NPY), which has a strong effect on food intake, increases food consumption to about 8 grams in this model.
Non-deprived male Wistar rats (n=6-10) were used for the study, dosed with vehicle or with ghrelin at 10 μg/rat icy dissolved in 5 μl saline. Food intake was measured in conscious animals, using feeding boxes. Food and water intake were measured for 3 hours after drug injection during early daytime, when food intake is normally at a very low level. GH release was measured in Halothane-anaesthetized animals from which blood samples were obtained, before dosing and 10 min after dosing, via the orbital plexus. The plasma was analyzed for rat GH.

GHS-R 1A = target: T1, GHS-R 1A (Homo sapiens, UniProt Q92847); test: Receptor binding assay, membranes of BHK/GHS-R 1A cells
T1 construct: expressed in transfected cells; host or cells: BHK cells, stably transfected
T1 sequence (Q92847 whole entry): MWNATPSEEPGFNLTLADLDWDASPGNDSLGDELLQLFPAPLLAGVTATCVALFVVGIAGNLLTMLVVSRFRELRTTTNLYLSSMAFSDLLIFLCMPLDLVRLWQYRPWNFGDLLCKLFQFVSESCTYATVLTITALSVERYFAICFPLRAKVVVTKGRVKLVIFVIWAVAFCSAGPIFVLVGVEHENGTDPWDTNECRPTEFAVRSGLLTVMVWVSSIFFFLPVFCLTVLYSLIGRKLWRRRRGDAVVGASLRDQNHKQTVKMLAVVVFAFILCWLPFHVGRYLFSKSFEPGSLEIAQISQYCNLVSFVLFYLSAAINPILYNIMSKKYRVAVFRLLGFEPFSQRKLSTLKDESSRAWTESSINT
Experimental: Briefly, crude membranes from stably transfected BHK/GHS-R 1A cells were suspended at 0.5 mg protein/ml in homogenization buffer (25 mM Tris-base, 2.5 mM EDTA, 10 mM MgCl2 and 30 μg/ml bacitracin). […] The filters were subsequently washed in 0.9% NaCl and counted using an Optiphase™ ‘HiSafe 3’ counter (Wallac, Turku, Finland).
Specific binding was determined as the difference between total binding and non-specific binding (binding in the presence of 10 μM unlabelled ligand). Binding curves were generated using either the non-linear regression or hyperbolic fit feature of the GraphPad™ Prism software package (GraphPad, San Diego, Calif., U.S.A.).

GH release [2] = details: cited from earlier work
[3] = read-out: Binding affinity to the GHS-R 1A (Ki)

Compound: Nc1ncnc2c1ncn2[C@@H]1O[C@H](CO)[C@@H](O)[C@H]1O [Adenosine, adenosine]
Stimulation of GH secretion from rat pituitary cells (rat pituitary cells): unable to stimulate GH secretion
GH release after intravenous (iv) administration (GH release [1]; adenosine 1 mg/kg iv, also 10 mg/kg iv in pentobarbital anaesthetized female SD rats): did not stimulate GH release
GH release after intracerebroventricular (icy) administration (GH release [1]; adenosine 10 and 100 μg/rat icy, Halothane anaesthetized male Wistar rats): did not stimulate GH release
Effect on food intake vs vehicle (food intake; 1 μg/rat icy): no effect
Effect on food intake vs vehicle (food intake; 10 μg/rat icy): food intake was significantly increased

Ki (GHS-R 1A; [3]): 22.2 ± 7 nM
Compound: CN(CCc1ccccn1)C(=O)[C@@H](Cc1ccccc1)N(C)C(=O)[C@@H](Cc1ccc2ccccc2c1)N(C)C(=O)/C=C/CC(C)(C)N [NNC 26-1187]

Compound: ghrelin (GSSFLSPEHQRVQQRKESKKPPAKLQPR; ends and bridges not checked; UniProt Q9UBU3 24-51, looked up) [peptide described by Kojima in Nature (1999), vol; 402, 656-660, reference compound]
GH release after icy administration (GH release [1]; ghrelin 10 μg/rat icy, Halothane-anaesthetized male Wistar rats, 10 min after dosing): did not stimulate GH release
Effect on food intake vs vehicle (food intake; 10 μg/rat icy): significant effect on feeding
GH release after iv administration (GH release [2]): causes stimulation of GH release

Ki (GHS-R 1A; [3]): 112 ± 29 nM
Compound: CNC(=O)[C@@H](Cc1ccccc1)N(C)C(=O)[C@@H](Cc1ccc2ccccc2c1)N(C)C(=O)/C=C/CC(C)(C)N [NN703]
Food intake (food intake; 30.0 μg per rat icy): about 3 grams

Compound: CN(C)N(C)C(=O)C1(Cc2ccccc2)CCCN(C(=O)[C@@H](Cc2c[nH]c3ccccc23)NC(=O)C(C)(C)N)C1 (stereo partly drawn) [NNC 26-1291]
Ki (GHS-R 1A): 0.4 ± 0.06 nM
